For data set [1], the target named is T1, Cholinesterase (Homo sapiens, UniProt P06276). The data set can be described thus: Inhibition of human serum BuChE using butyrylthiocholine iodide as substrate at 10 uM incubated for 10 mins followed by substrate addition by DTNB reagent based Ellman's method relative to control. (Ellman's reagent forms a yellow product with free thiols.)
In data set [2] the target is Acetylcholinesterase (Homo sapiens, UniProt P22303). Kind of data set: Inhibition of human erythrocytes AChE measured after 10 mins by Ellman's method.
Chain of Acetylcholinesterase (P22303 whole entry): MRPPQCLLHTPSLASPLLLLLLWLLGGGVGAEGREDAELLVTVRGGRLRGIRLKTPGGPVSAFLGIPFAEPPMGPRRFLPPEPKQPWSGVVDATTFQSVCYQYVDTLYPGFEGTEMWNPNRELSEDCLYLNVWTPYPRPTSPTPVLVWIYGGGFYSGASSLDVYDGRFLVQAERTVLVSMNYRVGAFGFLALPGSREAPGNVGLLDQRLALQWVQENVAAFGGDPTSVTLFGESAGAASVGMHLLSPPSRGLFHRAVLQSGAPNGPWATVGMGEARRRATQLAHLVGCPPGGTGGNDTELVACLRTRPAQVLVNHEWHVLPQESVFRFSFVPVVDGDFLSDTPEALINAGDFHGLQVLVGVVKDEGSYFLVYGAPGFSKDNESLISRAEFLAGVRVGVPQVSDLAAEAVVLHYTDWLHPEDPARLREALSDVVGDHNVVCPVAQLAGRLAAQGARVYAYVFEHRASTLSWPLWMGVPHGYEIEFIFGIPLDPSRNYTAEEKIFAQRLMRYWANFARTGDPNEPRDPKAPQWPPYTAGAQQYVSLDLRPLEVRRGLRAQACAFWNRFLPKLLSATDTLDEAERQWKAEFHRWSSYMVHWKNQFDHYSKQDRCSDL
In data set [3] the target is T1, Cholinesterase. Kind of data set: Inhibition of human serum BuChE using butyrylthiocholine iodide as substrate incubated for 10 mins followed by substrate addition by DTNB reagent based Ellman's method.
Data set [4] relates to PC-12. Kind of data set: Cytoprotective against rat PC12 cells assessed as cell viability at 50 uM preincubated for 24 hrs and measured after 4 hrs by CCK-8 assay. The data set is classed as functional, cell-based. Background: Formazan colour is commonly taken as a measure of viable cells.
The subject of data set [5] is PC-12. The data set can be described thus: Neuroprotective activity against H2O2-induced rat PC12 cells assessed as protection against H2O2-induced apoptosis by measuring viable cells at 50 uM pretreated for 2 hrs followed by H2O2 addition and measured after 24 hrs by Annexin V-FITC/PI staining based flow cytometry analysis (reference value: 90.8 %). Conditions: time 26 hrs. The data set is classed as functional. (Flow cytometry measures light scatter and fluorescence of single cells or particles in a stream.)

Data set [6] deals with PC-12. Kind of data set: Neuroprotective activity against H2O2-induced rat PC12 cells assessed as protection against H2O2-induced apoptosis by measuring early apoptotic cells at 50 uM pretreated for 2 hrs followed by H2O2 addition and measured after 24 hrs by Annexin V-FITC/PI staining based flow cytometry analysis (reference value: 0.88 %). The data set is classed as functional. Conditions: time 26 hrs.

The test system of data set [7] is PC-12. Kind of data set: Neuroprotective activity against H2O2-induced rat PC12 cells assessed as protection against H2O2-induced apoptosis by measuring late apoptotic cells at 50 uM pretreated for 2 hrs followed by H2O2 addition and measured after 24 hrs by Annexin V-FITC/PI staining based flow cytometry analysis (reference value: 7.26 %). The data set is classed as functional. Conditions: time 26 hrs.

Data set [8] concerns PC-12. Kind of data set: Neuroprotective activity against H2O2-induced rat PC12 cells assessed as protection against H2O2-induced apoptosis by measuring necrotic cells at 50 uM pretreated for 2 hrs followed by H2O2 addition and measured after 24 hrs by Annexin V-FITC/PI staining based flow cytometry analysis (reference value: 0.99 %). The data set is classed as functional. The following applies: time 26 hrs.

Data set [9] can be described thus: Inhibition of H2O2-induced ROS release in rat PC12 cells assessed as mean fluorescence intensity at 50 uM preincubated for 2 hrs followed by H2O2 addition and measured after 24 hrs by DCFH-DA based flow cytometry analysis (reference value: 23904). The data set is classed as functional, PC-12. The following applies: time 26 hrs.
A short description of data set [10]: Cytotoxicity against rat PC12 cells assessed as cell viability at 50 uM preincubated for 24 hrs and measured after 4 hrs by CCK-8 assay. Conditions: time 28 hrs, read-out: Activity. The data set is classed as toxicity, cell-based, PC-12.
Data set [11] has as its system PC-12. The data set can be described thus: Antioxidant activity against H2O2-induced toxicity in rat PC12 cells at 12.5 uM preincubated for 2 hrs and measured after 24 hrs by CCK-8 assay. The data set is classed as functional, cell-based. Conditions: time 26.0 hrs.

One may read the inhibition as the percentage by which the read-out fell short of the control. A lower inhibition goes with little suppression. For orientation: IC50 means the concentration needed to halve the response being measured. Low readings indicate higher potency, high ones lower potency.

Active and inactive are the calls of the source. No cut-off for these calls is given here. A value given as a limit tells only on which side of the number the result lay.

T1 sequence (P06276 whole entry): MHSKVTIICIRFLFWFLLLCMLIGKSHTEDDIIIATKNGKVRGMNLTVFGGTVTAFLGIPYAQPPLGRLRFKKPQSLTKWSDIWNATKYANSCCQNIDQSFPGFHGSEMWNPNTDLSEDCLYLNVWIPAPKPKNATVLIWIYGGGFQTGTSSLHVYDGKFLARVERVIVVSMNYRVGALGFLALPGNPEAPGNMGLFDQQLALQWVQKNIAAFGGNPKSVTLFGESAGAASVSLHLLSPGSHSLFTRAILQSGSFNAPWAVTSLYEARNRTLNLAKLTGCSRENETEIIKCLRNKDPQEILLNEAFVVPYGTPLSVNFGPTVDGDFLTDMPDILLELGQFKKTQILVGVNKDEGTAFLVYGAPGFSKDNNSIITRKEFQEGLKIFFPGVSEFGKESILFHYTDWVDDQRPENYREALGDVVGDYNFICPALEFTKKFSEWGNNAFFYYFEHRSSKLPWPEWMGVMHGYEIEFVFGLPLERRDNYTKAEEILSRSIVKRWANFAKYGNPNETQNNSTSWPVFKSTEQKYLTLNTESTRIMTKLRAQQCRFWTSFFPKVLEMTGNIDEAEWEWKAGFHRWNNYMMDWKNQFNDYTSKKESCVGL

In data set [1], `COc1ccc2c3c1O[C@H]1C[C@@H](OC(=O)NC4CCN(Cc5ccccc5F)CC4)C=C[C@@]31CCN(C)C2` came in with an inhibition of 21.6%. For the same compound, the IC50 in data set [2] amounted to 406 nM.

In turn, `COc1ccc2c3c1O[C@H]1C[C@@H](OCc4ccc(Cc5cccc(F)c5)cn4)C=C[C@@]31CCN(C)C2` displayed an inhibition in data set [1] of 92.3%. In addition, the IC50 in [3] was 743 nM.

For `COc1ccc2c3c1O[C@H]1C[C@@H](OC(=O)NC4CCN(Cc5ccc(Cl)cc5)CC4)C=C[C@@]31CCN(C)C2`, the inhibition in data set [1] came to 30.2%.

`COc1ccc2c3c1O[C@H]1C[C@@H](OC(=O)NCc4ccc([N+](=O)[O-])cc4)C=C[C@@]31CCN(C)C2` gave an inhibition in data set [1] of 6.23%.

In [1], `COc1ccc2c3c1O[C@H]1C[C@@H](OC(=O)NC4CCN(Cc5ccc(OC(F)(F)F)cc5)CC4)C=C[C@@]31CCN(C)C2` had an inhibition of 26%. Further, the 50% inhibitory concentration (IC50) in [2] amounted to 451 nM.

On to `COc1ccc2c3c1O[C@H]1C[C@@H](OC(=O)NC4CCN(Cc5ccc(F)cc5)CC4)C=C[C@@]31CCN(C)C2`, for which, in data set [1], the inhibition was determined as 21%. For the same compound, the concentration for half-maximal inhibition (IC50) in [2] came to 399 nM.

`COc1ccc2c3c1O[C@H]1C[C@@H](OC(=O)NC4CCN(Cc5cccc(F)c5)CC4)C=C[C@@]31CCN(C)C2` had an inhibition in data set [1] of 18.6%. In [2], this compound registered an IC50 of 419 nM. Moreover, the result in [4] was Active. The Activity in data set [5] is listed as 82.7%; in [6] it was 5.71%; in data set [7] it was 10.3%; in [8], 1.27%. In [9], the Flu intensity is given as 52051. In addition, in data set [10], the viability at 4 h, 50 µM was over 90%.

As to `COc1ccc2c3c1O[C@H]1C[C@@H](OC(=O)NC4CCN(Cc5ccc(C)cc5)CC4)C=C[C@@]31CCN(C)C2`, the inhibition in [1] was found to be 28.7%.

Compound `COc1ccc2c3c1O[C@H]1C[C@@H](OC(=O)NCc4ccc(C)cc4)C=C[C@@]31CCN(C)C2` had an inhibition in data set [1] of 4.99%.

Turning to `COc1ccc2c3c1O[C@H]1C[C@@H](OC(=O)NCc4cccc(F)c4)C=C[C@@]31CCN(C)C2`, in [1], the inhibition came out at 14.6%.

Take `COc1ccc2c3c1O[C@H]1C[C@@H](OC(=O)NCc4ccc(F)cc4)C=C[C@@]31CCN(C)C2`: in [1], the inhibition was determined as 12.7%.

In [1], `COc1ccccc1Cc1ccc(CO[C@H]2C=C[C@@]34CCN(C)Cc5ccc(OC)c(c53)O[C@H]4C2)nc1` gave an inhibition of 84.4%. For the same compound, the values for the IC50 in data set [2] and in [3] were 3200 nM and 2660 nM, respectively.

In data set [1], `COc1ccc2c3c1O[C@H]1C[C@@H](OC(=O)NC4CCN(Cc5ccc(F)cc5F)CC4)C=C[C@@]31CCN(C)C2` had an inhibition of 19.9%. In data set [2], this compound returned an IC50 of 1200 nM.

For `COc1ccc2c3c1O[C@H]1C[C@@H](OC(=O)NCc4ccc(C(F)(F)F)cc4)C=C[C@@]31CCN(C)C2`, the inhibition in [1] came to 14.9%.

In [1], `COc1ccc2c3c1O[C@H]1C[C@@H](OCc4ccc(Cc5cccc(Cl)c5)cn4)C=C[C@@]31CCN(C)C2` came in with an inhibition of 90.5%. Also, the figures for the IC50 in data set [2] and in [3] were 3390 nM and 913 nM, respectively. Besides, the result in [4] was Active. Also, the Activity in data set [5] is given as 72.4%; in data set [6], 10.9%; in data set [7], 15%; in data set [8], 1.45%. The Flu intensity in data set [9] was determined as 88808. For the same compound, in data set [10], the viability at 4 h, 50 µM is over 90%.

Consider `COc1ccc2c3c1O[C@H]1C[C@@H](OC(=O)NCc4ccccc4)C=C[C@@]31CCN(C)C2`, for which, in data set [1], the inhibition turned out to be 10.4%.

In [1], `COc1ccc2c3c1O[C@H]1C[C@@H](OCc4ccc(Cc5ccc(C)cc5)cn4)C=C[C@@]31CCN(C)C2` gave an inhibition of 87.4%. Besides, half-maximal inhibition in [3] (IC50) required 1350 nM.

The compound `COc1ccc(CNC(=O)O[C@H]2C=C[C@@]34CCN(C)Cc5ccc(OC)c(c53)O[C@H]4C2)cc1` had an inhibition in data set [1] of 2.97%.

For `COc1ccc2c3c1O[C@H]1C[C@@H](OCc4ccc(Cc5ccccc5)cn4)C=C[C@@]31CCN(C)C2`, in [1], the inhibition was found to be 91.2%. The same compound returned an IC50 in data set [3] of 1500 nM.

In [1], `COc1ccc2c3c1O[C@H]1C[C@@H](OC(=O)NC4CCN(Cc5ccccc5)CC4)C=C[C@@]31CCN(C)C2` returned an inhibition of 29.2%. Besides, half-maximal inhibition in [2] (IC50) was put at 370 nM. The Activity result in data set [11] is “Dose-dependent-effect”; in [5], 79.3%; in data set [6] it was 8.66%; in data set [7] it was 10.7%; in data set [8], 1.35%. For the same compound, in data set [4], the result was Active. Also, in data set [9], the Flu intensity amounted to 76256. Moreover, the viability at 4 h, 50 µM in data set [10] was over 90%.

`COc1cc(CN2CCC(NC(=O)O[C@H]3C=C[C@@]45CCN(C)Cc6ccc(OC)c(c64)O[C@H]5C3)CC2)cc(OC)c1` registered an inhibition in data set [1] of 12.9%.

With `COc1ccc2c3c1O[C@H]1C[C@@H](OC(=O)NCc4ccccc4C)C=C[C@@]31CCN(C)C2`, the inhibition in data set [1] was determined as 9.54%.

As for `COc1ccc2c3c1O[C@H]1C[C@@H](OC(=O)NC4CCN(Cc5ccc([N+](=O)[O-])cc5)CC4)C=C[C@@]31CCN(C)C2`, in data set [1], the inhibition was found to be 24.6%.

Turning to `COc1ccc2c3c1O[C@H]1C[C@@H](OC(=O)NCc4ccccc4F)C=C[C@@]31CCN(C)C2`, in [1], the inhibition amounted to 18.4%.

In [1], `COc1cccc(Cc2ccc(CO[C@H]3C=C[C@@]45CCN(C)Cc6ccc(OC)c(c64)O[C@H]5C3)nc2)c1` registered an inhibition of 88.2%. The compound also showed an IC50 in data set [3] of 1070 nM.

In data set [1], `COc1ccc2c3c1O[C@H]1C[C@@H](OCc4ccc(Cc5ccc(Cl)cc5)cn4)C=C[C@@]31CCN(C)C2` had an inhibition of 88.7%. This compound displayed an IC50 in data set [3] of 1030 nM.

Consider `COc1ccc2c3c1O[C@H]1C[C@@H](OC(=O)NCc4cc(F)cc(F)c4)C=C[C@@]31CCN(C)C2`, for which, in data set [1], the inhibition turned out to be 4.56%.

Turning to `COc1ccc2c3c1O[C@H]1C[C@@H](OC(=O)NC4CCN(Cc5cccc(C(F)(F)F)c5)CC4)C=C[C@@]31CCN(C)C2`, in data set [1], the inhibition was 25.1%. In data set [2], this compound displayed an IC50 of 601 nM.

Take `Oc1ccc(/C=C/c2cc(O)cc(O)c2)cc1` [RESVERATROL]: the Activity in data set [5] is given as 88.3%; in [6], 3.58%; in data set [7], 6.38%; in data set [8] it was 1.79%. The Flu intensity in [9] came out at 29540.

The compound `COc1ccc2c3c1O[C@H]1C[C@@H](OC(=O)NCc4ccc5[nH]ccc5c4)C=C[C@@]31CCN(C)C2` yielded an inhibition in data set [1] of 3.54%.

Compound `COc1ccc2c3c1O[C@H]1C[C@@H](OC(=O)NCc4ccc5ccccc5c4)C=C[C@@]31CCN(C)C2` returned an inhibition in data set [1] of 6.44%.

Regarding `COc1ccc(Cc2ccc(CO[C@H]3C=C[C@@]45CCN(C)Cc6ccc(OC)c(c64)O[C@H]5C3)nc2)cc1`, in data set [1], the inhibition came out at 87%. Besides, the IC50 in data set [3] is 1310 nM.

`COc1ccc2c3c1O[C@H]1C[C@@H](OCc4ccc(Cc5ccc(F)cc5)cn4)C=C[C@@]31CCN(C)C2`: the inhibition in data set [1] was determined as 90.3%. The IC50 in data set [3] was found to be 1010 nM.

With `COc1ccc2c3c1O[C@H]1C[C@@H](OC(=O)NCc4ccc(F)cc4F)C=C[C@@]31CCN(C)C2`, the inhibition in [1] was found to be 13.5%.

Compound `COc1ccc2c3c1O[C@H]1C[C@@H](OC(=O)NCc4ccc(OC(F)(F)F)cc4)C=C[C@@]31CCN(C)C2` registered an inhibition in data set [1] of 18.2%.

In turn, `COc1ccc2c3c1O[C@H]1C[C@@H](OC(=O)NCc4ccc(C#N)cc4)C=C[C@@]31CCN(C)C2` returned an inhibition in data set [1] of 2.57%.

In turn, `COc1ccc2c3c1O[C@H]1C[C@@H](OC(=O)NC4CCN(Cc5ccc(C#N)cc5)CC4)C=C[C@@]31CCN(C)C2` gave an inhibition in data set [1] of 21.3%.

Values taken from ChEMBL document CHEMBL6121005 (Eur J Med Chem, 2025).
